From patent US4992450A, “Piperidine opioid antagonists” (Eli Lilly and Company, priority 1989, dated 1991) come the findings set out here.

Where a name gives a salt, the structure may show the parent alone. Read-outs that look alike come from different tables or passages of the source. Where only a bound is given, the exact number is not on record here.

One assay concerns the target T1, mu receptor (Mus musculus, UniProt P42866).
T1 construct: Five CF-1 male mice (Charles River, Portage, Mich.); from tissue; host or cells: whole living CF-1 male mice (in vivo)
The assay is described as follows: Mouse writhing assay, antagonism of morphine analgesia (mu). Type of assay: in vivo, CF-1 male mice. As to conditions: sc, read-out: Mu AD50. On the technique in general: In writhing tests, fewer writhes than in controls are read as antinociception.

For the next assay, the target named is T2, kappa receptors (Rattus norvegicus, UniProt P34975).
T2 construct: sixty male Long-Evans hooded rats; from tissue; host or cells: whole living male Long-Evans hooded rats (in vivo)
Kind of assay: Rat diuresis assay, antagonism of bremazocine-induced urination. The assay is classed as in vivo, male Long-Evans hooded rats. Conditions: sc, rats, s.c., urinary output reduced to 50% of effect of 0.08 mg/kg bremazocine alone. On the procedure: As such, the compounds of the invention were also evaluated in a rat diuresis assay conducted according to the following procedure described by Leander et al. in Drug Development Research 4:421-427 (1984) in an effort to further establish the ability of the present compounds to block kappa receptors.
According to this procedure, sixty male Long-Evans hooded rats (Charles River Breeding Laboratories, Portage, Mich.) weighing between about 300 and 500 grams each were housed either individually or in pairs in a temperature-controlled (23° C.) colony room which was illuminated between 6:00 A.M. and 6:00 P.M. Rodent chow and tap water were continuously available except during the measurement of urine output. The animals were used repeatedly, but no more frequently than twice a week.
The animals were then injected with various doses of the test compounds. To measure urine output, the animals were removed from the home cages, weighed, injected and placed in metabolism cages for 5 hr. Excreted urine was funneled into graduated cylinders. Cumulative urine volumes were determined at designated time intervals, usually at 2 and 5 hr after injection.
The compounds which are salt forms were dissolved in distilled water. If necessary, the compounds were dissolved in distilled water with the aid of either a few drops of lactic acid or hydrochloric acid and gentle warming. All injections were s.c. in a volume of 1 ml/kg of body weight. During tests for antagonism, two injections were given, one on each side of the body.
In the Table, column 1 provides the Example Number of the compound tested; column 2, the amount of compound in mg/kg necessary to reduce the urinary output to 50% of the effect produced by 0.08 mg/kg of bremazocine alone two hours after injection of bremazocine and the test compound; and column 3, the amount of compound in mg/kg necessary to reduce the urinary output to 50% of the effect produced by 0.08 mg/kg of bremazocine alone five hours after injection of bremazocine and the test compound.

In assay [1] the target is T3, kappa receptor (Mus musculus, UniProt P33534).
T3 construct: Five CF-1 male mice (Charles River, Portage, Mich.); from tissue; host or cells: whole living CF-1 male mice (in vivo)
The assay is described as follows: in vivo. The arrangement: species or system CF-1 male mice. Conditions: sc, read-out: Kappa AD50.

In assay [2] the test system is meal fed obese Zucker rats. The assay is described as follows: Food consumption assay in meal fed obese Zucker rats. The assay is classed as in vivo. Conditions: Rattus norvegicus, sc, 4 h, amount to decrease food consumption 20% during first four hours. The text has this:
The following assay was employed to evaluate the ability of the compounds of the invention to effect food and water consumption of meal fed obese Zucker rats.
According to this procedure, 3-4 month old obese Zucker rats were trained to eat food daily from 8:00 A.M. to 4:00 P.M. only, such that the body weight gain approximates that if the rats were fed ad libitum. These rats were allowed to consume water at all times. Four groups of rats with four rats in each group, two female and two male, were formed. One group served as control for the other three groups each day. Each of the other groups were given a subcutaneous dose of the compound to be evaluated. The test compound was formulated in physiological saline containing 10% dimethylsulfoxide by volume.
Animals remained drug free for 4 days before the next test. Food and water consumption of each rat were measured for the first four hours. A test on one compound was run for three consecutive days. The drug effect was expressed as the percent of the control for that test day.
In the Table, column 1 gives the Example Number of the compound evaluated; and column 2 provides the ED20 in mg/kg, wherein ED20 represents the amount of compound evaluated in mg/kg necessary to decrease food consumption 20% during the first four hours of the experiment.

Assay [3] has as its target T4, kappa receptor (Cavia porcellus, UniProt P41144).
T4 construct: guinea pig cortex for the kappa site; from tissue; host or cells: guinea pig cortex, frozen pellet fraction
The assay is described as follows: Opioid receptor binding displacement assay, kappa site (guinea pig cortex, 3H ligand). The arrangement: species or system male Hartley guinea pigs. On the procedure: This assay was conducted by the following procedure.
Male Sprague Dawley rats for mu and delta site experiments and male Hartley guinea pigs for kappa site experiments were sacrificed via decapitation and the brains were removed. The brain tissue, rat whole brain minus cerebellum for mu and delta sites and guinea pig cortex for the kappa site, was homogenized in a Teflon and glass tissue homogenizer. A supernatant I, pellet IV, fraction was frozen in a nitrogen freezer at 1.33 g/ml concentration and stored for not longer than five weeks prior to use. Pellets were rehydrated with physiological buffer prior to use.
The reaction was initiated by the addition of the rehydrated tissue which has been preincubated at 37° C. for 20 minutes. The reaction mixture was incubated in a 37° C. water bath for 20 minutes. The reaction was terminated by rapid filtration, (Amicon vacuum manifolds), through Whatman GF/C glass filters that had been presoaked in Krebs-Hepes buffer pH 7.4. The filters were then washed 2× with 5 ml of ice cold Krebs-Hepes buffer pH 7.4. Washed filters were placed in scintillation vials and 10 ml PCS, (Amersham), was added and samples counted in a Searle D-300 beta counter. Means and standard error statistics were calculated for triplicate experimental determinations in certain cases. The procedure was slightly modified for the kappa site. The tissue was pretreated with 100 nM concentrations of mu and delta receptor site blockers. The incubation time for the reaction mixture was 45 minutes at 37° C.

[4] abbreviates: 2 h, two hours after injection, read-out: AD50 Two Hours.
[5] abbreviates: 5 h, five hours after injection, read-out: AD50 Five Hours.

T1 sequence (P42866 whole entry): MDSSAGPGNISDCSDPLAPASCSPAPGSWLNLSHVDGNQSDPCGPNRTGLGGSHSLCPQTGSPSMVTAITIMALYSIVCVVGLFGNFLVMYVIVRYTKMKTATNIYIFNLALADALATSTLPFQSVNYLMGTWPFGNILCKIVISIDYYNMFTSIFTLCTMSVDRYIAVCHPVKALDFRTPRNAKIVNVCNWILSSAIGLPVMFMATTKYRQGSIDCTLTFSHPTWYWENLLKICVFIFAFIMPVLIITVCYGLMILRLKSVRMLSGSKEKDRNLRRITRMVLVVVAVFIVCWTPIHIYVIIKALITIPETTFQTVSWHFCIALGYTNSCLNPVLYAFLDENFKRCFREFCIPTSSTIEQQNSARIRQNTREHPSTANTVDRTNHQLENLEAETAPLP
T3 sequence (P33534 whole entry): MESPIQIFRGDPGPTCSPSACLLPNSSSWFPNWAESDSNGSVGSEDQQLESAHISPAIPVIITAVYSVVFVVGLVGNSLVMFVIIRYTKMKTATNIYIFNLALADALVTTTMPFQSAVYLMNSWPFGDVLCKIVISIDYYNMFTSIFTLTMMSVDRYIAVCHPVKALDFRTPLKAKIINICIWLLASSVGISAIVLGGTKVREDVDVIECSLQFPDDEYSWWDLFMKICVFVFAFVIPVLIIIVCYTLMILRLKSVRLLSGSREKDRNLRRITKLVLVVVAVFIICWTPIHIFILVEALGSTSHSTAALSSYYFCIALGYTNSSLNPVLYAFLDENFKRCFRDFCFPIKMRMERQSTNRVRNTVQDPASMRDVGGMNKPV
T4 sequence (P41144 whole entry): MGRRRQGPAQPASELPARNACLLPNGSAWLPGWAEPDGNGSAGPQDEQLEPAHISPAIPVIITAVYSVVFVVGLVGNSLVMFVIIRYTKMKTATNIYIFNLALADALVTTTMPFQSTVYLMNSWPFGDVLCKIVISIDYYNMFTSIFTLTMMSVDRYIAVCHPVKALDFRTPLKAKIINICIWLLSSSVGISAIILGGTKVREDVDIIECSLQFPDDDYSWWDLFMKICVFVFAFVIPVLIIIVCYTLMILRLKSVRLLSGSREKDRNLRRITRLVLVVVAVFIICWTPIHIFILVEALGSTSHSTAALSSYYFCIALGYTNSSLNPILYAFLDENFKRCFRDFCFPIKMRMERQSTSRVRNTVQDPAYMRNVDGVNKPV
T2 sequence (P34975 whole entry): as the sequence (P33534 whole entry) above, with D11E, S17A, S51P, A308V counted along it

For the molecule `CC(C)CCN1CCC(C)(c2cccc(O)c2)C(C)C1` (stereo not drawn) [Example 16, trans-(±)-1-(3-Methylbutyl)-3,4-dimethyl-4-(3-hydroxyphenyl)piperidine hydrochloride], the ED50 stood at 0.87 mg/kg on mu receptor, 7.7 mg/kg on kappa receptors (setting [4]), 4.45 mg/kg at kappa receptors (setting [5]) and 0.62 mg/kg at kappa receptor [1]. This molecule had an ED20 in assay [2] above 20 mg/kg. Also, at kappa receptor [3], the affinity, expressed as Ki, was 70.1 nM.

As for `CCCCCCCN1CCC(C)(c2cccc(O)c2)C(C)C1` (stereo not drawn) [Example 8, trans-(±)-1-(n-Heptyl)-3,4-dimethyl-4-(3-hydroxyphenyl)piperidine hydrochloride], the ED50 on mu receptor was 0.21 mg/kg; at kappa receptors (setting [4]) it was 3.77 mg/kg; at kappa receptors (setting [5]), 3.33 mg/kg; at kappa receptor [1] it was 0.64 mg/kg. The molecule also showed an ED20 in assay [2] of 0.44 mg/kg.

Turning to `CC1CN(CCCC2CCCCC2)CCC1(C)c1cccc(O)c1` (stereo not drawn) [Example 11, trans-(±)-1-(3-Cyclohexylpropyl)-3,4-dimethyl-4-(3-hydroxyphenyl)piperidine hydrochloride], the ED50 on mu receptor came out at 0.19 mg/kg; at kappa receptors (setting [4]), 1.9 mg/kg; on kappa receptors (setting [5]) it was 1.02 mg/kg; at kappa receptor [1], 0.35 mg/kg. This molecule showed an ED20 in assay [2] of 0.15 mg/kg. Also, the affinity on kappa receptor [3], expressed as Ki, was 2.34 nM.

Take `CC(C)CCCCN1CCC(C)(c2cccc(O)c2)C(C)C1` (stereo not drawn) [Example 4, trans-(±)-1-(5-Methylhexyl)-3,4-dimethyl-4-(3-hydroxyphenyl)piperidine hydrochloride]: the ED50 is 0.35 mg/kg on mu receptor, 0.17 mg/kg on kappa receptors (setting [4]), 0.46 mg/kg at kappa receptors (setting [5]) and 0.23 mg/kg at kappa receptor [1]. In assay [2], this molecule displayed an ED20 of 0.05 mg/kg. For the same molecule, the Ki (usually the dissociation constant of the complex between target and ligand, obtained from inhibition or displacement) at kappa receptor [3] (read-out: Ki Kappa, guinea pig cortex, pH 7.4, 37° C., 45 minutes, mu and delta sites blocked (100 nM)) is 6.04 ± 0.44 nM.

Consider `C[C@@H]1CN(CCCc2cccs2)CC[C@]1(C)c1cccc(O)c1` (stereo in doubt) [Example 37, trans-(-)-1-[3-(2-Thienyl)propyl]-3,4-dimethyl-4-(3-hydroxyphenyl)piperidine hydrochloride], for which the ED50 at mu receptor turned out to be 0.24 mg/kg; on kappa receptors (setting [4]), 2.92 mg/kg; on kappa receptors (setting [5]) it was 1.66 mg/kg; on kappa receptor [1], 0.65 mg/kg. The same molecule yielded an ED20 in assay [2] of 0.19 mg/kg.

Turning to `CC1CN(CCCc2ccsc2)CCC1(C)c1cccc(O)c1` (stereo not drawn) [Example 41, trans-(±)-1-[3-(3-Thienyl)propyl]-3,4-dimethyl-4-(3-hydroxyphenyl)piperidine hydrochloride], the ED50 turned out to be 0.12 mg/kg on mu receptor, 2.7 mg/kg on kappa receptors (setting [4]), 1.9 mg/kg on kappa receptors (setting [5]) and 0.24 mg/kg at kappa receptor [1]. Besides, the Ki at kappa receptor [3] worked out at 10.3 nM.

On to `C[C@H]1CN(CCCc2cccs2)CC[C@@]1(C)c1cccc(O)c1` (stereo in doubt) [Example 36, trans-(+)-1-[3-(2-Thienyl)propyl]-3,4-dimethyl-4-(3-hydroxyphenyl)piperidine], for which the ED50 on mu receptor came to 0.05 mg/kg; at kappa receptors (setting [4]), 4.65 mg/kg; on kappa receptors (setting [5]), 1.65 mg/kg; on kappa receptor [1], 0.11 mg/kg. The molecule also came in with an ED20 in assay [2] of 0.05 mg/kg.

`CCCCCCN1CCC(C)(c2cccc(O)c2)C(C)C1` (stereo not drawn) [Example 22, trans-(±)-1-(n-Hexyl)-3,4-dimethyl-4-(3-hydroxyphenyl)piperidine hydrochloride]: the ED50 on mu receptor was determined as 0.05 mg/kg; at kappa receptors (setting [4]), 1.31 mg/kg; on kappa receptors (setting [5]) it was 0.7 mg/kg; at kappa receptor [1], 0.11 mg/kg. Moreover, the ED20 in assay [2] was 0.78 mg/kg.

`CCCCCCN1CC[C@](C)(c2cccc(O)c2)[C@H](C)C1` (stereo in doubt) [Example 2, trans-(-)-1-(n-Hexyl)-3,4-dimethyl-4-(3-hydroxyphenyl)piperidine hydrochloride]: the values for the ED50 on mu receptor and on kappa receptor [1] were 0.21 mg/kg and 0.29 mg/kg, respectively. This molecule also displayed an ED20 in assay [2] of 1.25 mg/kg.

With `CC1CN(CCCC2CCCC2)CCC1(C)c1cccc(O)c1` (stereo not drawn) [Example 9, trans-(±)-1-(3-Cyclopentylpropyl)-3,4-dimethyl-4-(3-hydroxyphenyl)piperidine hydrochloride], the ED50 on mu receptor worked out at 0.12 mg/kg; at kappa receptors (setting [4]) it was 2.4 mg/kg; on kappa receptors (setting [5]), 0.79 mg/kg; on kappa receptor [1], 0.13 mg/kg. The molecule further came in with an ED20 in assay [2] of 1.25 mg/kg.

Consider `CC(C)C(O)CCN1CC[C@@](C)(c2cccc(O)c2)[C@@H](C)C1` (relative stereo) [Example 20, trans-(±)-1-[R,S-(3-Hydroxy-4-methylpentyl)]-3,4-dimethyl-4-(3-hydroxyphenyl)piperidine hydrochloride], for which the ED50 at mu receptor worked out at 0.14 mg/kg; at kappa receptor [1], 0.35 mg/kg. The ED20 in assay [2] was determined as 0.91 mg/kg.

Consider `C[C@H]1CN(CC[C@@H](O)C2CCCCC2)CC[C@@]1(C)c1cccc(O)c1` [Example 25, trans-(+)-1-[R-(3-Hydroxy-3-cyclohexylpropyl)]-3,4-dimethyl-4-(3-hydroxyphenyl)piperidine], for which the ED50 on mu receptor is 0.03 mg/kg; on kappa receptor [1], 0.36 mg/kg. In addition, in assay [2], the ED20 is 0.13 mg/kg.

As to `CC1CN(CCCc2cccs2)CCC1(C)c1cccc(O)c1` (stereo not drawn) [Example 35, trans-(±)-1-[3-(2-Thienyl)propyl]-3,4-dimethyl-4-(3-hydroxyphenyl)piperidine hydrochloride], the ED50 was determined as 0.22 mg/kg on mu receptor, 2.2 mg/kg on kappa receptors (setting [4]), 1.04 mg/kg at kappa receptors (setting [5]) and 0.3 mg/kg on kappa receptor [1]. In assay [2], this molecule had an ED20 of 0.08 mg/kg.

Take `CCCCCCN1CC[C@@](C)(c2cccc(O)c2)[C@@H](C)C1` (stereo in doubt) [Example 1, trans-(+)-1-(n-Hexyl)-3,4-dimethyl-4-(3-hydroxyphenyl)piperidine hydrochloride]: the ED50 on mu receptor amounted to 0.26 mg/kg; on kappa receptor [1], 0.22 mg/kg. The molecule further had an ED20 in assay [2] of 0.08 mg/kg.

For `CCCCCN1CCC(C)(c2cccc(O)c2)C(C)C1` (stereo not drawn) [Example 14, trans-(±)-1-(n-Pentyl)-3,4-dimethyl-4-(3-hydroxyphenyl)piperidine hydrochloride], the ED50 was found to be 0.37 mg/kg at mu receptor, 0.78 mg/kg at kappa receptors (setting [4]), 0.69 mg/kg on kappa receptors (setting [5]) and 0.6 mg/kg on kappa receptor [1]. In addition, the ED20 in assay [2] worked out at 4.47 mg/kg.

Consider `CC1CN(CCC2CCCCC2)CCC1(C)c1cccc(O)c1` (stereo not drawn) [Example 13, trans-(±)-1-(2-Cyclohexylethyl)-3,4-dimethyl-4-(3-hydroxyphenyl)piperidine hydrochloride], for which the results for the ED50 at mu receptor and at kappa receptor [1] were 0.1 mg/kg and 0.12 mg/kg, respectively. The molecule further had an ED20 in assay [2] of 4.56 mg/kg.
